pEC50: −log10 of the molar value. The source made the active and inactive calls. No cut-off for these calls is given here.
Columns and labels:
[1] = biological target: Free fatty acid receptor 1 (Mus musculus) (UniProt Q76JU9); test: Agonist activity at GPR40 in mouse MIN6 cells assessed as fold increase in 3 mM glucose-mediated insulin secretion at 10 uM incubated for 2 hrs by ELISA relative to control; format: functional, cell-based
[2] = Half life in CD-1 mouse at 10 mg/kg, po measured up to 8 hrs by LC-MS/MS analysis; format: ADME, organism-based; conditions: in vivo
[3] = biological target: Free fatty acid receptor 1 (Mus musculus) (UniProt Q76JU9); test: Agonist activity at GPR40 in mouse MIN6 cells assessed as fold increase in 17 mM glucose-mediated insulin secretion at 1 to 10 uM incubated for 2 hrs in presence of GW1100 by ELISA relative to control; format: functional, cell-based; conditions: dose 1-10 µM
[4] = AUC (0 to t) in CD-1 mouse at 10 mg/kg, po measured up to 8 hrs by LC-MS/MS analysis; format: ADME, organism-based; set-up: route oral, dose 10 mg/kg, time <=8; conditions: in vivo
[5] = biological target: T1, Free fatty acid receptor 2 (Homo sapiens, UniProt O15552); test: Agonist activity at FFAR2 (unknown origin); format: functional
T1 sequence (O15552 whole entry): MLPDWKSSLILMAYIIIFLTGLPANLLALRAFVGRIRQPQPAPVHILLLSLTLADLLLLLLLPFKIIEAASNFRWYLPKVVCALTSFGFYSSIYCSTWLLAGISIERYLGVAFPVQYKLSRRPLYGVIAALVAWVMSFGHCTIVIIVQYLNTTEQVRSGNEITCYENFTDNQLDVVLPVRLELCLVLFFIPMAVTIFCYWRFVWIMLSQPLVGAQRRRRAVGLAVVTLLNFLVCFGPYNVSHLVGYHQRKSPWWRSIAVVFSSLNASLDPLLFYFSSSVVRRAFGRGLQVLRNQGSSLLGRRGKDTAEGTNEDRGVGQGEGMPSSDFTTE

[6] = MRTlast in CD-1 mouse at 90 mg/kg, po measured up to 8 hrs by LC-MS/MS analysis; format: ADME, organism-based; conditions: in vivo
[7] = Cmax in CD-1 mouse at 30 mg/kg, po measured up to 8 hrs by LC-MS/MS analysis; format: ADME, organism-based; set-up: route oral, dose 30 mg/kg, time <=8; conditions: in vivo
[8] = biological target: T2, Free fatty acid receptor 3 (Homo sapiens, UniProt O14843); test: Agonist activity at FFAR3 (unknown origin); format: functional
T2 sequence (O14843 whole entry): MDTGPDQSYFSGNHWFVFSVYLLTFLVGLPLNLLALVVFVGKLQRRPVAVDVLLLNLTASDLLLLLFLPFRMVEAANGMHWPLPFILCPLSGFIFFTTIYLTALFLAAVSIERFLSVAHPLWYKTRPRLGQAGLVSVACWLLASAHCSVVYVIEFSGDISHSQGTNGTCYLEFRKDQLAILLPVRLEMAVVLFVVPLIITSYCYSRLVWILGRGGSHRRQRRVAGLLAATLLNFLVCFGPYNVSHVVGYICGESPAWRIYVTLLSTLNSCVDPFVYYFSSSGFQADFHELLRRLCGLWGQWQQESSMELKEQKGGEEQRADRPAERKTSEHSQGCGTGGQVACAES

[9] = AUC (0 to t) in CD-1 mouse at 30 mg/kg, po measured up to 8 hrs by LC-MS/MS analysis; format: ADME, organism-based; set-up: route oral, dose 30 mg/kg, time <=8; conditions: in vivo
[10] = biological target: T3, Free fatty acid receptor 1 (Homo sapiens, UniProt O14842); test: Agonist activity at GPR40 (unknown origin) expressed in CHO cells co-expressing luc2P/SRE (Gq) assessed as firefly luciferase activity at 10 uM incubated for 24 hrs by Bright-Glo based serum response element (SRE) luciferase reporter assay; format: functional, cell-based; conditions: filed as positive allosteric modulator
T3 sequence (O14842 whole entry): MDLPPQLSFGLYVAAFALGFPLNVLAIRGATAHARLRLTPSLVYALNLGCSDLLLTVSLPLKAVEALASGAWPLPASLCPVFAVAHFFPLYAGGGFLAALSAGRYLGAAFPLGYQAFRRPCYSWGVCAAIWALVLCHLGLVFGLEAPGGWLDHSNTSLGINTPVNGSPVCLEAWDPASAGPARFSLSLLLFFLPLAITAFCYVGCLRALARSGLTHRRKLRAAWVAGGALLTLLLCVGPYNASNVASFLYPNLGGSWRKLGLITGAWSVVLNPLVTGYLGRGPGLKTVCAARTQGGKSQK

MIN6 [11] = test: Effect on BSA-PA conjugate-induced lipo-toxicity in mouse MIN6 cells assessed as caspase 3/7 activity at 50 uM incubated for 72 hrs by fluorescence assay; format: functional, cell-based
[12] = MRTlast in CD-1 mouse at 30 mg/kg, po measured up to 8 hrs by LC-MS/MS analysis; format: ADME, organism-based; conditions: in vivo
[13] = AUC (0 to t) in CD-1 mouse at 90 mg/kg, po measured up to 8 hrs by LC-MS/MS analysis; format: ADME, organism-based; set-up: route oral, dose 90 mg/kg, time <=8; conditions: in vivo
[14] = biological target: T3, Free fatty acid receptor 1; test: Agonist activity at GPR40 (unknown origin) expressed in CHO cells co-expressing luc2P/CRE (Gs) assessed as firefly luciferase activity at 10 uM incubated for 24 hrs by Bright-Glo based […] luciferase reporter assay; format: functional, cell-based
STC1 = test: Induction of GLP-1 secretion in […] STC1 cells at 30 uM after 1 hrs by ELISA; format: functional, cell-based
[15] = MRTlast in CD-1 mouse at 10 mg/kg, po measured up to 8 hrs by LC-MS/MS analysis; format: ADME, organism-based; conditions: in vivo
[16] = Cmax in CD-1 mouse at 10 mg/kg, po measured up to 8 hrs by LC-MS/MS analysis; format: ADME, organism-based; set-up: route oral, dose 10 mg/kg, time <=8; conditions: in vivo
[17] = Clast in CD-1 mouse at 10 mg/kg, po measured up to 8 hrs by LC-MS/MS analysis; format: ADME, organism-based; conditions: in vivo, read-out: Clast
Mus musculus = test: Antidiabetic activity in C57BL/6J mouse assessed as reduction in plasma glucose level at 30 mg/kg, po pretreated 1 hr before glucose challenge measured up to 120 mins by Oral glucose tolerance test; format: functional; set-up: scale not given: the % may be the effect or the level left; conditions: 2 h
[18] = Half life in CD-1 mouse at 30 mg/kg, po measured up to 8 hrs by LC-MS/MS analysis; format: ADME, organism-based; conditions: in vivo
[19] = Tlast in CD-1 mouse at 90 mg/kg, po measured up to 8 hrs by LC-MS/MS analysis; format: ADME, organism-based; conditions: in vivo
[20] = biological target: T3, Free fatty acid receptor 1; test: Agonist activity at GPR40 (unknown origin) expressed in CHO cells co-expressing luc2P/SRE assessed as firefly luciferase activity at 10 uM incubated for 24 hrs hrs by Bright-Glo based serum response element (SRE) luciferase reporter assay relative to TAK875; format: functional, cell-based; conditions: filed as positive allosteric modulator
[21] = Tlast in CD-1 mouse at 30 mg/kg, po measured up to 8 hrs by LC-MS/MS analysis; format: ADME, organism-based; conditions: in vivo
[22] = Tmax in CD-1 mouse at 100 mg/kg, po measured up to 8 hrs by LC-MS/MS analysis; format: ADME, organism-based; conditions: in vivo
[23] = biological target: T3, Free fatty acid receptor 1; test: Agonist activity at GPR40 (unknown origin) expressed in CHO cells assessed as increase in cAMP level incubated for 30 mins by cAMP-Glo assay; format: functional, cell-based
[24] = Metabolic stability in mouse liver microsomes assessed as intrinsic clearance; format: ADME, Microsome; conditions: read-out: CLH
[25] = Tmax in CD-1 mouse at 10 mg/kg, po measured up to 8 hrs by LC-MS/MS analysis; format: ADME, organism-based; conditions: in vivo
[26] = Half life in CD-1 mouse at 90 mg/kg, po measured up to 8 hrs by LC-MS/MS analysis; format: ADME, organism-based; conditions: in vivo
[27] = Cmax in CD-1 mouse at 90 mg/kg, po measured up to 8 hrs by LC-MS/MS analysis; format: ADME, organism-based; set-up: route oral, dose 90 mg/kg, time <=8; conditions: in vivo
[28] = Solubility of the compound in FaSSIF at 27 degC measured after 24 hrs; format: physicochemical; conditions: simulated gi fluid
[29] = Tlast in CD-1 mouse at 10 mg/kg, po measured up to 8 hrs by LC-MS/MS analysis; format: ADME, organism-based; conditions: in vivo
MIN6 [30] = test: Cytotoxicity in mouse MIN6 cells assessed as caspase 3/7 activity at 100 uM incubated for 72 hrs by fluorescence assay; format: cell-based; conditions: min6, 72 h

Free fatty acid receptor 1 (Mus musculus), sequence (Q76JU9 whole entry): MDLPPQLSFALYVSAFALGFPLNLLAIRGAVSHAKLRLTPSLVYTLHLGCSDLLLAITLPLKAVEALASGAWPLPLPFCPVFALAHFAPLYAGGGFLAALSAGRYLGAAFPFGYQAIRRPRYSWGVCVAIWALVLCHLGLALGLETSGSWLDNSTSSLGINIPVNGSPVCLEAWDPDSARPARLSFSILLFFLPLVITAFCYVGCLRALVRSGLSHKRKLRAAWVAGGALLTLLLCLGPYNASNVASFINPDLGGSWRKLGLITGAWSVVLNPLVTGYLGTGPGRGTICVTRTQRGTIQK

SMILES | Activity [1] | half-life [2] | Activity [3] | AUC(0-t) at 8 h [4] | pEC50 [5] | MRT last at 8 h [6] | Cmax [7] | pEC50 [8] | AUC(0-t) at 8 h [9] | Activity [10] | Activity (MIN6 [11]) | MRT last at 8 h [12] | AUC(0-t) at 8 h [13] | pEC50 [14] | Activity (STC1) | MRT last at 8 h [15] | Cmax [16] | concentration at 8 h [17] | Activity (Mus musculus) | half-life [18] | further results
Cc1cc(F)ccc1-c1cc2cc(CCC(=O)O)ccc2[nH]1 | inactive | 1.3 h | inactive | 4860 ng·h/mL | < 4.60 | 1.14 h | 28700 ng/mL | < 4.60 | 38700 ng·h/mL | Active | inactive | 1.34 h | 9620 ng·h/mL | 6.28 | Active | 1.23 h | 3740 ng/mL | 11 ng/mL | 22.9% | 1.16 h | Tlast [19]: 8 h; Emax [20]: 111%; Tlast [21]: 8 h; Tmax [22]: 0.44 h; pEC50 [23]: 6.17; microsomal CLint [24]: ≤ 4 µL/min/mg; Tmax [25]: 0.55 h; half-life [26]: 1.4 h; Cmax [27]: 10300 ng/mL; solubility [28]: Soluble; Tlast [29]: 8 h; Activity (MIN6 [30]): Non-Toxic
Cc1ccc(C)c(-c2cc3cc(CCC(=O)O)ccc3[nH]2)c1 | inactive | 2.4 h | inactive | 114000 ng·h/mL | < 4.60 | 2.31 h | 24000 ng/mL | < 4.60 | 33600 ng·h/mL | Active | inactive | 1.24 h | 186000 ng·h/mL | 4.89 | Active | 2.06 h | 52900 ng/mL | 1250 ng/mL | 14.4% | 1.33 h | Tlast [19]: 8 h; Emax [20]: 103%; Tlast [21]: 8 h; Tmax [22]: 0.44 h; pEC50 [23]: 5.12; microsomal CLint [24]: 10.5 µL/min/mg; Tmax [25]: 0.33 h; half-life [26]: 1.36 h; Cmax [27]: 65000 ng/mL; solubility [28]: Soluble; Tlast [29]: 8 h; Activity (MIN6 [30]): Non-Toxic

From ChEMBL document CHEMBL4808171, “Structure-Activity Relationship Study and Biological Evaluation of 2-(Disubstituted phenyl)-indole-5-propanoic Acid Derivatives as GPR40 Full Agonists” (J Med Chem, 2021)
